Measurements: US8541418B2, “Inhibitors of polo-like kinase” (Elan Pharmaceutical, Inc., priority 2009, dated 2013)
Read-outs that look alike come from different tables or passages of the source.

Tests used:
Type in all cases: biochemical
PLK2 = PLK2 (Homo sapiens, UniProt Q9NYY3); test: PLK TR-FRET peptide assay, PLK2; settings: for IC50: read-out: Plk2 IC50
PLK3 = PLK3 (Homo sapiens, UniProt Q9H4B4); test: PLK TR-FRET peptide assay, PLK3
PLK1 = PLK1 (Homo sapiens, UniProt P53350); test: PLK TR-FRET peptide assay, PLK1
[1] = PLK TR-FRET peptide assay, GST-PLK2, 60 min reaction
[2] = GST-PLK3, 15 min reaction, read-out: Plk3 IC50

Sequence of PLK3 (Q9H4B4 whole entry): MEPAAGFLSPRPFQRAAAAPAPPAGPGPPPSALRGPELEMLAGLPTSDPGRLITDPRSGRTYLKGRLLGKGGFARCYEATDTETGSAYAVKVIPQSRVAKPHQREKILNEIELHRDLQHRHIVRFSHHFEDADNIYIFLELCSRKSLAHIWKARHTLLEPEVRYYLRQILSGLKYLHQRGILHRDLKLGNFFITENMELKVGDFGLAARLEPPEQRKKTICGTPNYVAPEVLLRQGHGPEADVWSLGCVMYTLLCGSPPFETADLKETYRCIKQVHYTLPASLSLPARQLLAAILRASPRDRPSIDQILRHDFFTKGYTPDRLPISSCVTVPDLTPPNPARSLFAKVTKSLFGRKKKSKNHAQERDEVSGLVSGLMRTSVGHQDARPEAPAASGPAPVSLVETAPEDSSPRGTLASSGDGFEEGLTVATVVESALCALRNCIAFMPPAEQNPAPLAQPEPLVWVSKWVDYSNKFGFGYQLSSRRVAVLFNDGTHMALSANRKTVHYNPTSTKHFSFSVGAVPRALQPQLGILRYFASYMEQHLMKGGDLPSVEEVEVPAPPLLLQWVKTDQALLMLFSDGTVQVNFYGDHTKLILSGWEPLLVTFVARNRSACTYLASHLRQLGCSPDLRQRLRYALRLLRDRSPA
Sequence of PLK1 (P53350 whole entry): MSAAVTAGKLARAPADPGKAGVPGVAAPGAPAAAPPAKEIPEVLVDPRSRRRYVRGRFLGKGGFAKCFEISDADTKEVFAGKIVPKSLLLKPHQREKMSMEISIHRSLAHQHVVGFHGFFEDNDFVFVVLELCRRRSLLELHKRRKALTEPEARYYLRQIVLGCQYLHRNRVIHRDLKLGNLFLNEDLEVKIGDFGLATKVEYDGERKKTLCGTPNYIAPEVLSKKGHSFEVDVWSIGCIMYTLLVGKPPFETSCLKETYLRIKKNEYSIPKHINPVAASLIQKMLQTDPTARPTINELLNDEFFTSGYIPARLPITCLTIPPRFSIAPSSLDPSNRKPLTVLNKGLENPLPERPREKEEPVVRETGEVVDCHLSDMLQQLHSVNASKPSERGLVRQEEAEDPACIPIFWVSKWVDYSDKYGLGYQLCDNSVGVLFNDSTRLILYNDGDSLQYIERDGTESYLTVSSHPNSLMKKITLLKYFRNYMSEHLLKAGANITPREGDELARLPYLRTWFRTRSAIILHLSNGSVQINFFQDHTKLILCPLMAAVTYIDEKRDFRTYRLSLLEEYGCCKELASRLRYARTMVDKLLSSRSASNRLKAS
Sequence of PLK2 (Q9NYY3 whole entry): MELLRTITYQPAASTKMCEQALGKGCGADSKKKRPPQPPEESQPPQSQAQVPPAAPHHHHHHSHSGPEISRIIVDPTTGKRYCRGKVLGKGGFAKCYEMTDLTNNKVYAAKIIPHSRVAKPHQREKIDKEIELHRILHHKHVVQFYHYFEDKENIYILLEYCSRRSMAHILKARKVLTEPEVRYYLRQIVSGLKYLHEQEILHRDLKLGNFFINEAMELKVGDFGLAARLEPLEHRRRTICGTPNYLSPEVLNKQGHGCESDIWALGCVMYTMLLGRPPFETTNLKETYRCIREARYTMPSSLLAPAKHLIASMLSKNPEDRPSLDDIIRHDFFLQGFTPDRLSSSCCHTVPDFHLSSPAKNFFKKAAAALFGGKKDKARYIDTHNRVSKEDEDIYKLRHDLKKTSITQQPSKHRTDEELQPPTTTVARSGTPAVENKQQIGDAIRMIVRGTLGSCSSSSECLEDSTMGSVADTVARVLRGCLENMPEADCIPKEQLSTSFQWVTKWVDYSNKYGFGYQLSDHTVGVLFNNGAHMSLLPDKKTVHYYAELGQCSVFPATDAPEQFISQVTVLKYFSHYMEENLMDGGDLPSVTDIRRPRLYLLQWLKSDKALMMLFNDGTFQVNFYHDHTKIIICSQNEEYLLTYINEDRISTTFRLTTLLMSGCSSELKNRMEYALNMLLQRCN

| IC50 (PLK2; [1]) | IC50 (PLK3; [2]) | IC50 (PLK1; GST-PLK1, 60 min reaction) | relative PLK2 activity of the enantiomers (PLK2; compared with the opposite enantiomer) | IC50 (PLK2; PLK TR-FRET peptide assay, GST-PLK2) | IC50 (PLK3; GST-PLK3, read-out: Plk3 IC50) | IC50 (PLK1; GST-PLK1) | Compound | IC50 (PLK2) |
| --- | --- | --- | --- | --- | --- | --- | --- | --- |
| 10 to 50 µM | 10 to 50 µM | 10 to 50 µM |  |  |  |  | CN1C(=O)C2(CC(F)(F)F)CCCN2c2nc(-n3ccnc3)ncc21 (stereo not shown) [Example 329, 2-(1H-imidazol-1-yl)-5-methyl-6a-(2,2,2-trifluoroethyl)-6a,7,8,9-tetrahydropyrrolo[2,1-h]pteridin-6(5H)-one] |  |
| < 1 µM | > 50 µM | > 50 µM | more active compound |  |  |  | CC[C@@]12CCCCN1c1nc(-n3ccnc3-c3cc(F)c(F)c(F)c3)ncc1N(C)C2=O [Example 266, (S)-6a-ethyl-5-methyl-2-(2-(3,4,5-trifluorophenyl)-1H-imidazol-1-yl)-7,8,9,10-tetrahydro-5H-pyrido[2,1-h]pteridin-6(6aH)-one] |  |
| < 1 µM | 10 to 50 µM | 1 to 10 µM |  |  |  |  | CC[C@@H]1C(=O)N(C)c2cnc(-n3ccnc3-c3cccc(C#N)c3)nc2N1C(C)C [Example 228, (R)-3-(1-(7-ethyl-8-isopropyl-5-methyl-6-oxo-5,6,7,8-tetrahydropteridin-2-yl)-1H-imidazol-2-yl)benzonitrile] |  |
| 1 to 10 µM | > 50 µM | 1 to 10 µM |  |  |  |  | CC[C@@H]1C(=O)N(C)c2cnc(-c3ccncc3NS(=O)(=O)c3ccccc3)nc2N1C(C)C [Example 120, (R)—N-(4-(7-ethyl-8-isopropyl-5-methyl-6-oxo-5,6,7,8-tetrahydropteridin-2-yl)pyridin-3-yl)benzenesulfonamide] |  |
| < 1 µM | 10 to 50 µM | 10 to 50 µM |  |  |  |  | CC[C@@H]1C(=O)N(C)c2cnc(-n3ccnc3-c3ccc(C#N)cc3)nc2N1C(C)C [Example 227, (R)-4-(1-(7-ethyl-8-isopropyl-5-methyl-6-oxo-5,6,7,8-tetrahydropteridin-2-yl)-1H-imidazol-2-yl)benzonitrile] |  |
| < 1 µM | 1 to 10 µM | 1 to 10 µM |  |  |  |  | CCC1C(=O)N(C)c2cnc(-c3cn[nH]c3-c3nccs3)nc2N1c1cccc(C#N)c1 (stereo not shown) [Example 372, 3-(7-ethyl-5-methyl-6-oxo-2-(5-(thiazol-2-yl)-1H-pyrazol-4-yl)-6,7-dihydropteridin-8(5H)-yl)benzonitrile] |  |
| 10 to 50 µM | > 50 µM | 10 to 50 µM |  |  |  |  | CCC1C(=O)N(C)c2cnc(-n3ccnc3)nc2N1c1cccc(-c2cncnc2)c1 (stereo not shown) [Example 333, 7-ethyl-2-(1H-imidazol-1-yl)-5-methyl-8-(3-(pyrimidin-5-yl)phenyl)-7,8-dihydropteridin-6(5H)-one] |  |
| 10 to 50 µM | > 50 µM | > 50 µM |  |  |  |  | CCC12CCCCN1c1nc(-n3ccnc3)ncc1N(C)C2=O (racemic) [Example 283, (+/−) 6a-ethyl-2-(1H-imidazol-1-yl)-5-methyl-7,8,9,10-tetrahydro-5H-pyrido[2,1-h]pteridin-6(6aH)-one] |  |
| < 1 µM | < 1 µM | < 1 µM |  |  |  |  | CC[C@@H]1C(=O)N(C)c2cnc(-n3ccnc3-c3cncc(F)c3)nc2N1C1CCCC1 [Example 99, (R)-8-cyclopentyl-7-ethyl-2-(2-(5-fluoropyridin-3-yl)-1H-imidazol-1-yl)-5-methyl-7,8-dihydropteridin-6(5H)-one] |  |
| < 1 µM | 1 to 10 µM | 1 to 10 µM |  |  |  |  | CC[C@@H]1C(=O)N(C)c2cnc(-c3ccncc3NC(=O)c3ccccc3)nc2N1C(C)C [Example 104, (R)—N-(4-(7-ethyl-8-isopropyl-5-methyl-6-oxo-5,6,7,8-tetrahydropteridin-2-yl)pyridin-3-yl)benzamide] |  |
| < 1 µM | 10 to 50 µM | 1 to 10 µM |  |  |  |  | CC[C@@H]1C(=O)N(C)c2cnc(-n3ccnc3-c3ccc(F)cn3)nc2N1C1CCC1 [Example 224, (R)-8-cyclobutyl-7-ethyl-2-(2-(5-fluoropyridin-2-yl)-1H-imidazol-1-yl)-5-methyl-7,8-dihydropteridin-6(5H)-one] |  |
| < 1 µM | 10 to 50 µM | 1 to 10 µM |  |  |  |  | CC[C@@H]1C(=O)N(C)c2cnc(-n3cccn3)nc2N1C1CCCC1 [Example 42, (R)-8-cyclopentyl-7-ethyl-5-methyl-2-(1H-pyrazol-1-yl)-7,8-dihydropteridin-6(5H)-one] |  |
| 1 to 10 µM | 10 to 50 µM | > 50 µM |  |  |  |  | CC[C@H]1C(=O)N(C)c2cnc(-n3ccnc3-c3ccc(F)cc3)nc2N1c1cccc(C#N)c1 [Example 359, (S)-3-(7-ethyl-2-(2-(4-fluorophenyl)-1H-imidazol-1-yl)-5-methyl-6-oxo-6,7-dihydropteridin-8(5H)-yl)benzonitrile] |  |
| < 1 µM | > 50 µM | 10 to 50 µM |  |  |  |  | CC[C@@]12CCCN1c1nc(-n3ccnc3-c3cccc(-n4cccn4)c3)ncc1N(C)C2=O [Example 276, (S)-2-(2-(3-(1H-pyrazol-1-yl)phenyl)-1H-imidazol-1-yl)-6a-ethyl-5-methyl-6a,7,8,9-tetrahydropyrrolo[2,1-h]pteridin-6(5H)-one] |  |
| > 50 µM | > 50 µM | > 50 µM |  |  |  |  | CC[C@]12CCCCN1c1nc(-n3ccnc3-c3cc(F)cc(F)c3)ncc1N(C)C2=O [Example 250, (R)-2-(2-(3,5-difluorophenyl)-1H-imidazol-1-yl)-6a-ethyl-5-methyl-7,8,9,10-tetrahydro-5H-pyrido[2,1-h]pteridin-6(6aH)-one] |  |
| < 1 µM | 10 to 50 µM | < 1 µM |  |  |  |  | CC[C@@H]1C(=O)N(C)c2cnc(-n3ccnc3-c3cccc(F)c3)nc2N1C1CC(F)(F)C1 [Example 194, (R)-8-(3,3-difluorocyclobutyl)-7-ethyl-2-(2-(3-fluorophenyl)-1H-imidazol-1-yl)-5-methyl-7,8-dihydropteridin-6(5H)-one] |  |
| < 1 µM | > 50 µM | > 50 µM |  |  |  |  | CC[C@@H]1C(=O)N(C)c2cnc(-c3sc(Br)nc3-c3ccc(F)cc3)nc2N1C(C)C [Example 347, (R)-2-(2-bromo-4-(4-fluorophenyl)thiazol-5-yl)-7-ethyl-8-isopropyl-5-methyl-7,8-dihydropteridin-6(5H)-one] |  |
| < 1 µM | < 1 µM | < 1 µM |  |  |  |  | CC[C@@H]1C(=O)N(C)c2cnc(-n3ccnc3-c3cccnc3)nc2N1C1CCCC1 [Example 67, (R)-8-cyclopentyl-7-ethyl-5-methyl-2-(2-(pyridin-3-yl)-1H-imidazol-1-yl)-7,8-dihydropteridin-6(5H)-one] |  |
| < 1 µM | 1 to 10 µM | < 1 µM |  |  |  |  | CC[C@@H]1C(=O)N(C)c2cnc(-n3ccnc3-c3cccc(Cl)c3)nc2N1C1CCOC1 (stereo partly drawn) [Example 211, (7R)-2-(2-(3-chlorophenyl)-1H-imidazol-1-yl)-7-ethyl-5-methyl-8-(tetrahydrofuran-3-yl)-7,8-dihydropteridin-6(5H)-one] |  |
| 1 to 10 µM | > 50 µM | 10 to 50 µM |  |  |  |  | [2H]C([2H])([2H])N1C(=O)[C@H](C([2H])([2H])C([2H])([2H])[2H])N(C([2H])(C([2H])([2H])[2H])C([2H])([2H])[2H])c2nc(-n3ccnc3-c3ccc(F)cc3)ncc21 [Example 199, (S)-7-perdeuteroethyl-2-(2-(4-fluorophenyl)-1H-imidazol-1-yl)-8-perdeuteroisopropyl-5-trideuteromethyl-7,8-dihydropteridin-6(5H)-one] |  |
| 1 to 10 µM | 1 to 10 µM | 1 to 10 µM |  |  |  |  | CC[C@@H]1C(=O)N(C)c2cnc(-c3cncnc3-c3nccs3)nc2N1C(C)C [Example 197, (R)-7-ethyl-8-isopropyl-5-methyl-2-(4-(thiazol-2-yl)pyrimidin-5-yl)-7,8-dihydropteridin-6(5H)-one] |  |
|  |  |  |  | 1 to 10 µM | > 50 µM | 10 to 50 µM | CC[C@H]1C(=O)N(C)c2cnc(-c3cn[nH]c3-c3nccs3)nc2N1c1ccc(Cl)cc1 [Example 383, (S)-8-(4-chlorophenyl)-7-ethyl-5-methyl-2-(5-(thiazol-2-yl)-1H-pyrazol-4-yl)-7,8-dihydropteridin-6(5H)-one] |  |
| < 1 µM | 1 to 10 µM | < 1 µM |  |  |  |  | CC[C@@H]1C(=O)N(C)c2cnc(-c3cccc(C(N)=O)c3)nc2N1C1CCCC1 [Example 66, (R)-3-(8-cyclopentyl-7-ethyl-5-methyl-6-oxo-5,6,7,8-tetrahydropteridin-2-yl)benzamide] |  |
| < 1 µM | < 1 µM | < 1 µM |  |  |  |  | CC[C@@H]1C(=O)N(C)c2cnc(-c3ccncc3-c3ccccc3)nc2N1C1CCC1 [Example 96, (R)-8-cyclobutyl-7-ethyl-5-methyl-2-(3-phenylpyridin-4-yl)-7,8-dihydropteridin-6(5H)-one] |  |
| < 1 µM | 1 to 10 µM | < 1 µM |  |  |  |  | CC[C@@H]1C(=O)N(C)c2cnc(-c3ccc(S(C)(=O)=O)cc3)nc2N1C1CCCC1 [Example 64, (R)-8-cyclopentyl-7-ethyl-5-methyl-2-(4-(methylsulfonyl)phenyl)-7,8-dihydropteridin-6(5H)-one] |  |
| 10 to 50 µM | > 50 µM | > 50 µM |  |  |  |  | CN1C(=O)[C@H]2CCCN2c2nc(-n3ccnc3)ncc21 [Example 33, (R)-2-(1H-imidazol-1-yl)-5-methyl-6a,7,8,9-tetrahydropyrrolo[2,1-h]pteridin-6(5H)-one] |  |
| < 1 µM | 1 to 10 µM | 1 to 10 µM |  |  |  |  | CC[C@@H]1C(=O)N(C)c2cnc(-c3sc(N)nc3-c3ccn[nH]3)nc2N1C(C)C [Example 337, (R)-2-(2-amino-4-(1H-pyrazol-5-yl)thiazol-5-yl)-7-ethyl-8-isopropyl-5-methyl-7,8-dihydropteridin-6(5H)-one] |  |

| Compound | IC50 (PLK2; [1]) | IC50 (PLK3; [2]) | IC50 (PLK1; GST-PLK1, 60 min reaction) | relative PLK2 activity of the enantiomers (PLK2; compared with the opposite enantiomer) | IC50 (PLK2; PLK TR-FRET peptide assay, GST-PLK2) | IC50 (PLK3; GST-PLK3, read-out: Plk3 IC50) | IC50 (PLK1; GST-PLK1) | IC50 (PLK2) |
| --- | --- | --- | --- | --- | --- | --- | --- | --- |
| 7-perdeuteroethyl-8-perdeuteroisopropyl-5-trideuteromethyl-2-(3-phenylpyridin-4-yl)-7,8-dihydropteridin-6(5H)-one [Example 146] |  | < 1 µM | < 1 µM |  |  |  |  | < 1 µM |
